Experimental findings from US8324284B2, “Migrastatin analogs and uses thereof” (Sloan-Kettering Institute for Cancer Research, priority 2003, dated 2012) are described below.

For series [1] the following is noted: rcm bond, toluene, 0.25 h.
The subject of series [2] is 4T1 mouse breast tumor cells. The series can be described thus: Chamber cell migration assay with 4T1 tumor cells. The format is cell-based. Particulars: for IC50: Boyden chamber, 6-8 h, average of three experiments; for inhibitory activity on 4T1 tumor cell migration, in words: chamber assay. The protocol: The biological evaluation of the compounds (in terms of their ability to inhibit cell migration) was accomplished in a Boyden chamber cell migration assay. In this assay, mouse breast tumor cells (4T1 cells) or endothelial cells (HUVECs) are seeded on the upper chamber of a transwell insert. Growth factor-containing serum is added to the lower chamber.
Chamber Cell Migration Assay (Tables 4 and 6): Cell migrations were assayed with Boyden chambers [8.0 μm pore size, polyethylene terephthalate membrane, FALCON cell culture insert (Becton-Dickinson)]. 4T1 mouse breast tumor cells or HUVECs were trypsinized and counted. 300 μl of 5−10×10^4 cells in serum-free medium was added to the upper chamber and 500 μl of medium with 10% fetal bovine serum (FBS) was added to the lower chamber. […] Cells on the inside of the transwell inserts were removed with a cotton swab, and cells on the underside of the insert were fixed and stained. Photographs of three random regions were taken and the number of cells was counted to calculate the average number of cells that have transmigrated.

The subject of series [3] is HUVEC. The series can be described thus: Tube formation assay. Particulars: minimal concentration causing definite disturbance of tube network; 16-18 h; tested 200, 100, 50, 25, 10 μM. The format is cell-based, human. The protocol:
A protocol was designed based on the instructions from the provider (BD Bioscience, San Jose, Calif.). Briefly, wells of a 48 well culture dish were covert with 150 μL matrigel and the matrigel was gelatinized for 30 min at 37° C. A 80-90% confluent HUVEC (BD Bioscience, San Jose, Calif.) culture was trypsin treated, the detached cells were collected by centrifugation and resuspended in EGM-2 media (BD Bioscience, San Jose, Calif.). Cell concentration was adjusted to 100.000 cells/mL. 400 μL of the cell suspension were filled in the matrigel coated wells, and a solution of the inhibitor was added to the intended final concentration. The plates were incubated at 37° C. with 5% CO2 for 16-18 h. Media was removed, and the matrigel surface was washed twice with 500 μL PBS before cells were labeled with 250 μL […] Calcein AM (Pierce, Rockford, Ill.) in PBS for 30 min at 37° C. After two additional washing steps (500 μL PBS) cells were visualized under an inverted microscope. Fluorescence was excited at 488 nm and recorded at 538 nm. The minimum effect concentration was defined as the minimal inhibitor concentration that caused a definite disturbance of the complexity of the formed tube network.

The test system of series [4] is KYSE-520 cells. The series can be described thus: Wound healing (scratch) assay. The format is cell-based. The note with it: 28 to 30 h, tested 200, 100, 50, 25, 10 μM. The protocol:
The wound healing assay was performed based on the method described by Nakae et al. (Nakae et al., J. Antibiotics (2000), 53, 1130-1136). Briefly, adherent cells were grown in a suitable media to confluence (e.g. KYSE-520 cells in RPMI-1640 with 10% FBS). Cells were starved for 24 h in serum free media. A scratch (ca. 0.5 mm) was applied and the cell layer was washed twice with PBS after removal of the media. Fresh, serum free media with the test compound at the desired concentration was added and the cells were incubated for 28 to 30 h at 37° C., 5% CO2. The scratch size was compared to that observed for cells exposed to 100 μM Migrastatin. Test compounds associated with a scratch size equal to or larger than that observed for cells exposed to 100 μM Migrastatin were deemed to have cell migration inhibitory activity at least equal to Migrastatin.

For series [5], the system named is 4T1 tumor lung metastasis. The series is described as follows: 4T1 tumor lung metastasis in syngeneic mice. The format is in vivo, mouse. The note with it: for lung metastasis, colonies (6-thioguanine clonogenic assay): mean and standard deviation; for inhibition of lung metastasis: 10 mg/kg i.p. daily Day 7-25. How it is done: Female BALB/c mice (6-8 week old) were purchased from the Jackson Laboratory (Bar Harbor, Me.). All mice were housed at the Weill Medical College of Cornell University Animal Facilities in accordance with the Principles of Animal Care (NIH publication no. 85-23, revised 1985). 4T1 tumor cells (1×10^5) were injected subcutaneously into the abdominal mammary gland area of mice in 0.1 ml of a single-cell suspension in phosphate buffered saline (PBS) on Day 0. The dosage of tumor implantation was empirically determined to give rise to tumor of ˜10 mm in diameter in untreated wild type mice in 21-23 days. On Day 7, when the tumors averaged in size ˜4-5 mm in diameter, migrastatin analogs or control PBS saline were given every day by intraperitoneal injection at 10 mg/kg or 20 mg/kg per mouse until Day 25. On Day 28, the mice were sacrificed. This regiment of migrastatin analogs was well tolerated with no signs of overt toxicity. Every group included five mice. Primary tumors were measured using electronic calipers on the day when the mice were sacrificed. Tumor size was the square root of the product of two perpendicular diameters. Numbers of metastatic 4T1 cells in lung were determined by the clonogenic assay.^63 In brief, lungs were removed from each mouse on Day 28, finely minced and digested in 5 ml of enzyme cocktail containing 1×PBS and 1 mg/ml collagenase type IV for 2 hours at 37° C. on a platform rocker. After incubation, samples were filtered through 70 uM nylon cell strainers and washed twice with PBS. Resulting cells were suspended and plated serially diluted in 10 cm tissue culture dishes in medium RPMI1640 containing 60 uM thioguanine for clonogenic growth. 6-Thioguanine-resistant tumor cells formed foci after 14 days, at which time they were fixed with methanol and stained with 0.03% methylene blue for counting.
Treatment 4T1 tumor lung metastasis in syngeneic mice with migrastatin analogs (See, FIG. 4). 4T1 tumor cells (10^5) were injected s.c. in the abdominal mammary gland with 0.1 ml of a single-cell suspension. Macroketone or macrolactam at 10 mg/kg or 20 mg/kg was given i.p. on Day 7 when the tumor size was about 5 mm in diameter, and every day until Day 25. On Day 28, the mice were sacrificed. Each group comprised five mice. Lung metastasis was measured by the 6-thiogunine clonogenic assay. The mean and standard deviation are presented. In the control group (daily PBS injection), there were 61300±18900 colonies.

The nature of series [6]: Metabolic stability in mouse plasma. Type of series: in vitro ADME. The note with it: mouse plasma/PBS, 37° C. How it is done: Mouse Plasma Stability Studies (Table 5): HPLC conditions: The sample is injected and separated using an Inertsil ODS3 6u 3×150 mm column with a mobile phase of MeCN and water (50% for migrastatin) at a flow of 0.4 mL/min, monitored at 220 nm at 0.02 AUFS (the retention time for migrastatin is ca. 4 min, the identity of this peak was confirmed by mass spectral analysis). Incubation and sample preparation conditions: A solution (ca. 30 mM) of chemical compound (Table 5) in DMSO is prepared. 2 μL of the solution is added to a mixture containing 200 μL of mouse plasma and 800 μL of PBS. The resulting solution is put into a water bath at 37° C., and 100 μL of sample is withdrawn at 10, 20, 30, 45, and 60 min. The precipitate is removed by centrifugation and 20 μL of the supernatant is injected onto the HPLC.

Read-outs that look alike come from different tables or passages of the source.

Compound `CO[C@H]1C=CCC/C=C/C(=O)OC/C(C)=C\[C@@H](C)[C@@H]1O[Si](C)(C)C(C)(C)C` showed a ring closure, yield of all isomers in series [1] (from C=CCC/C=C/C(=O)OC/C(C)=C\[C@@H](C)[C@H](O[Si](C)(C)C(C)(C)C)[C@H](C=C)OC, Grubbs-II catalyst, 0.664 mM, 110.0 °C) of 55%.
In series [1] (from C=CCC/C=C/C(=O)O[C@@H](/C(C)=C\[C@@H](C)[C@H](O[Si](C)(C)C(C)(C)C)[C@H](C=C)OC)[C@H](C)C(=O)CCCC1CC(=O)NC(=O)C1, Grubbs-II catalyst, 0.46 mM, 110.0 °C), `CO[C@H]1C=CCC/C=C/C(=O)O[C@H]([C@H](C)C(=O)CCCC2CC(=O)NC(=O)C2)/C(C)=C\[C@@H](C)[C@@H]1O[Si](C)(C)C(C)(C)C` returned a ring closure, yield of all isomers of 69%.
`CO[C@H]1C=CCCCCC(=O)CC/C(C)=C\[C@@H](C)[C@@H]1O[Si](C)(C)C(C)(C)C` came in with a ring closure, yield of all isomers in series [1] (from C=CCCCCC(=O)CC/C(C)=C\[C@@H](C)[C@H](O[Si](C)(C)C(C)(C)C)[C@H](C=C)OC, Grubbs-II, 0.508 mM, 111.0 °C) of 81%.
In series [1] (from C=CCCCCC(=O)OC/C(C)=C\[C@@H](C)[C@H](O[Si](C)(C)C(C)(C)C)[C@H](C=C)OC, Grubbs-II catalyst, 0.498 mM, 110.0 °C), `CO[C@H]1C=CCCCCC(=O)OC/C(C)=C\[C@@H](C)[C@@H]1O[Si](C)(C)C(C)(C)C` came in with a ring closure, yield of all isomers of 76%.
As to `CO[C@H]1C=CCCCCC(=O)O[C@@H](C(C)C)/C(C)=C\[C@@H](C)[C@@H]1O`, the ring closure, yield of all isomers in series [1] (from C=CCCCCC(=O)O[C@H](/C(C)=C\[C@@H](C)[C@H](O[Si](C)(C)C(C)(C)C)[C@H](C=C)OC)C(C)C, Grubbs-II, 0.53 mM, 111.0 °C, 2 steps) was determined as 65%.
Compound `CO[C@H]1C=CCCCCC(=O)O[C@H]([C@H](C)C(=O)CCCC2CC(=O)NC(=O)C2)/C(C)=C\[C@@H](C)[C@@H]1O[Si](C)(C)C(C)(C)C` returned a ring closure, yield of all isomers in series [1] (from C=CCCCCC(=O)O[C@@H](/C(C)=C\[C@@H](C)[C@H](O[Si](C)(C)C(C)(C)C)[C@H](C=C)OC)[C@H](C)C(=O)CCCC1CC(=O)NC(=O)C1, Grubbs-II catalyst, 0.48 mM, 110.0 °C) of 79%.
As for `COC1C=CCCCCC(=NNC(=O)CCOCCOCCOCCOCCNC(=O)CCCCC2SCC3NC(=O)NC32)CCC(C)=CC(C)C1O` (mixture of isomers) [biotinylated macrohydrazone (73), Biotinylated Macrohydrazone], in series [2], the half-inhibitory concentration (IC50) stood at 0.331 µM and the “inhibitory activity on 4T1 tumor cell migration, in words” value (“inhibitory activity” below) was “inhibitory potency is largely retained”.
For `COC1C=CCCCCC(=O)OC(C(C)C(=O)CCCC2CC(=O)NC(=O)C2)C(C)=CC(C)C1O` (centres unmarked) [2,3-dihydromigrastatin (41), 2,3-Dihydromigrastatin], the results for the Minimum effect concentration in series [3] and in series [4] were 50 µM and 25 µM, respectively.
Take `COC1C=CCCCCC(=O)OC(C(C)C)C(C)=CC(C)C1O` [(R)-isopropyl macrolactone (68), (R)-Isopropyl Macrolactone]: in series [2], the IC50 came out at 146 µM and the “inhibitory activity” value is “only very weak effects on tumor cell migration”.
The like results for `COC1C=CCCCCC(=O)OC(C(C)C)C(C)=CC(C)C1O` [(S)-isopropyl macrolactone (65), (S)-Isopropyl Macrolactone] were, in that order, 227 µM and “only very weak effects on tumor cell migration”.
In series [2], `COC1C=CCCCCC(=O)OC(C(C)C(=O)CCCC2CC(=O)N(C)C(=O)C2)C(C)=CC(C)C1O` (centres unmarked) [N-methyl-2,3-dihydromigrastatin (42), N-Methyl-2,3-Dihydromigrastatin] gave an IC50 of 7 µM.
As to `CO[C@H]1/C=C/CCCCC(=O)OC/C(C)=C\[C@@H](C)[C@@H]1OC(C)=O` [acetylated macrolactone (49), Acetylated Macrolactone], the “inhibitory activity” value in series [2] is “reduced by roughly an order of magnitude”.
In series [2], `C[C@@H]1O[C@H]2C3=C(C(=O)[C@@H]4O[C@@H]4[C@H]3O)[C@@H]1[C@H]1[C@H](C)OC=C3[C@H](O)[C@H]4OC4C(=O)[C@@]312` (some centres unmarked) [epoxyquinol, epoxyquinol A, reference compound] displayed an IC50 of 0.026 µM.
Take `CO[C@H]1/C=C/CCCCC(O)(C(F)(F)F)CC/C(C)=C\[C@@H](C)[C@@H]1O` (some centres unmarked) [macrocyclic CF3-alcohol (71), Macrocyclic CF3-Alcohol]: the “inhibitory activity” value in series [2] is reported as “displays the same activity profile as macroketone 60”.
Regarding `COC1C=CCCCCC(=O)NCC(C)=CC(C)C1O` (centres unmarked) [macrolactam (55), Macrolactam], the “lung metastasis, colonies (6-thioguanine clonogenic assay)” value stood at 5333±1778 colonies in series [5] (10 mg/kg i.p. daily Day 7-25, Day 28) and 5675±6263 colonies in series [5] (20 mg/kg i.p. daily Day 7-25, Day 28). The inhibition of lung metastasis in series [5] (listed as macrolactam) is 91%; in series [5] (listed as macrolactam 55), roughly 91%.
Take `COC1C=CCCC=CC(=O)OCC(C)=CC(C)C1O` (centres unmarked) [migrastatin core (45), Migrastatin Core]: the Minimum effect concentration in series [3] is 10 µM. For the same compound, in series [6], the “stability (t1/2, mouse plasma)” value is 20 min. Further, in series [6] (60 min of incubation, stable = intensity of HPLC signal unchanged), the “stability (t1/2, mouse plasma), in words” value is recorded as “hydrolyzed rapidly”.
For `CO[C@H]1/C=C/CCCCC(=O)OC/C(C)=C\[C@@H](C)C1=O` [oxidized macrolactone (50), Oxidized Macrolactone], the “inhibitory activity” value in series [2] is “reduced by roughly an order of magnitude”.

By IC50 is commonly meant the concentration at which inhibition is half-maximal. Read a high IC50 as weaker potency in that assay.
